# Laboratory results as given in patent US20140213446A1, “HERBICIDAL COMPOSITIONS AND METHODS USING COMBINATIONS OF 4-AMINO-3-CHLORO-6-(4-CHLORO-2-FLUORO-3-METHOXYPHENYL)PYRIDINE-2-CARBOXYLIC ACID OR A DERIVATIVE THEREOF AND AN ARYLOXYPHENOXY PROPIONATE ACCASE INHIBITOR HERBICIDE” (DOW AGROSCIENCES LLC, priority 2013, published 2014).
# Assays:
# [1] = system: OEOBI Oenothera biennis (evening primrose); assay: Postemergence foliar-applied herbicidal mixtures, weeds common to row crops; assay type: in vivo; details: Cmpd 2 3.75 g ae/ha
# Excerpt: (§1) Evaluation of Postemergence Foliar-Applied Herbicidal Mixtures for Control of Weeds Common to Row Crops such as Corn and Soybeans. Seeds or nutlets of the desired test plant species were planted in a soil matrix prepared by mixing a loam or sandy loam soil (e.g., 28.6 percent silt, 18.8 percent clay, and 52.6 percent sand, with a pH of about 5.8 and an organic matter content of about 1.8 percent) and calcareous grit in an 80 to 20 ratio. The soil matrix was contained in plastic pots with a surface area of 84.6 cm^2 and a volume of 560 cubic centimeters (cm^3). When required to ensure good germination and healthy plants, a fungicide treatment and/or other chemical or physical treatment was applied. The plants were grown for 7-31 d in a greenhouse with an approximate 15 h photoperiod which was maintained at about 23-29° C. during the day and 22-28° C. during the night. Nutrients (Peters Excel® 15-5-15 5-Ca 2-Mg) and water were added on a regular basis and supplemental lighting was provided with overhead metal halide 1000-Watt lamps as necessary. The plants were employed for testing when they reached the first, second, or third true leaf stage.
# (§2) Treatment requirements were calculated based upon the rates being tested, the concentration of active ingredient or acid equivalent in the formulation, and a 12 mL application volume at a rate of 187 L/ha.
# (§3) Treatments consisted of the potassium (K^+) salt of 4-amino-3-chloro-6-(4-chloro-2-fluoro-3-methoxyphenyl)-pyridine-2-carboxylic acid (Cmpd 4) formulated as a soluble liquid (SL), the propargyl ester of 4-amino-3-chloro-6-(4-chloro-2-fluoro-3-methoxyphenyl)-pyridine-2-carboxylic acid (Cmpd 2) as technical grade material, or the benzyl ester of 4-amino-3-chloro-6-(4-chloro-2-fluoro-3-methoxyphenyl)-pyridine-2-carboxylic acid (Cmpd 3) as technical grade material and quizalofop-p-ethyl (Assure® II) alone and in combination. Forms of compound of formula (I) and quizalofop-P-ethyl were applied on an acid equivalent basis.
# (§4) For treatments comprised of formulated compounds, measured amounts of compounds were placed individually in 25 mL glass vials and diluted in a volume of 1.5% (v/v) Agri-Dex® crop oil concentrated to obtain 6× stock solutions. […] Application solutions were prepared by adding an appropriate amount of each stock solution (typically 2 mL) and diluted to the appropriate final concentrations with the addition of an appropriate amount of an aqueous mixture of 1.5% (v/v) crop oil concentrate and water so that the final spray solutions contained 1.25+/−0.05% (v/v) crop oil concentrate.
# (§5) For treatments comprised of formulated and technical compounds, weighed amounts of the technical materials were placed individually in 25 mL glass vials and dissolved in a volume of 97:3 v/v acetone/DMSO to obtain 6× stock solutions, and measured amounts of the formulated compounds were placed individually in 25 mL glass vials and diluted in a volume of 1.5% (v/v) crop oil concentrate or water to obtain 6× stock solutions. […] Application solutions were prepared by adding an appropriate amount of each stock solution (e.g., 2 mL) and diluted to the appropriate final concentrations with the addition of an appropriate amount of an aqueous mixture of 1.5% (v/v) crop oil concentrate and water so that the final spray solutions contained 1.25% (v/v) crop oil concentrate. When required, additional water and/or 97:3 v/v acetone/DMSO can be added to individual application solutions so that the final acetone and DMSO concentrations of the application solutions being compared are 16.2% and 0.5%, respectively.
# (§6) All stock solutions and applications solutions were visually inspected for compound compatibility prior to application. Compound requirements are based upon a 12 mL application volume at a rate of 187 liters per hectare (L/ha). […]
# [2] = system: SORHA Sorghum halepense (L.) Pers. (Johnsongrass); assay: as above; assay type: in vivo
# Excerpt: as §1, §2, §3, §4, §5, §6
smiles,measurement,setting,value
"C#CCOC(=O)c1nc(-c2ccc(Cl)c(OC)c2F)cc(N)c1Cl [Cmpd 2, propargyl ester of 4-amino-3-chloro-6-(4-chloro-2-fluoro-3-methoxyphenyl)-pyridine-2-carboxylic acid]",Percent (%) injury rated visually 14 DAA Obs,[1],65%
same,Percent (%) injury rated visually 14 DAA Obs,[2]; Cmpd 2 3.75 g ae/ha,0%
same,Percent (%) injury rated visually 14 DAA Obs,[2]; Cmpd 2 7.5 g ae/ha,0%
same,Percent (%) injury rated visually 14 DAA Obs,[2]; Cmpd 2 15 g ae/ha,10%
